Patent publication US10189887B2, “Polypeptides and uses thereof for reducing CD95-mediated cell motility” (INSERM (INSTITUT NATIONAL DE LA SANTÉ ET DE LA RECHERCHE …, priority 2014, dated 2019)

How the values were obtained:
[1] = tested on: CD95-mediated Ca^2+ response; test: Calcium response to cl-CD95L in activated PBL; format: cell-based, human; conditions: activated PBL pre-incubated 1 hr, 10 μM peptide, 100 ng/ml cl-CD95L
Procedure: Cells were loaded with Fura2-AM (1 μM) at resting temperature for 30 min in Hank's Balanced Salt Solution (HBSS). After washing with HBSS, the cells were incubated for 15 min in the absence of Fura2-AM to complete de-esterification of the dye. Cells were placed in a thermostated chamber (37° C.) of an inverted epifluorescence microscope (Olympus IX70) equipped with a ×40, UApo/340-1.15 W water-immersion objective (Olympus), and fluorescence micrograph images were captured at 510 nm and at 12-bit resolution by a fast-scan camera (CoolSNAP fx Monochrome, Photometrics). To minimize UV light exposure, 4×4 binning function was used. Fura2-AM was alternately excited at 340 and 380 nm, and ratios of the resulting images (excitations at 340 and 380 nm and emission filter at 520 nm) were produced at constant intervals (5 s or 10 s according to the stimulus). […] Fluorescent images were pseudocolored using the IMD display mode in MetaFluor and assembled without further manipulation in Photoshop (Adobe). Raw data were acquired with MetaFluor and graphed in Origin (OriginLab). [Ca^2+]i was calculated using the following equation: [Ca^2+]i=Kd(R−Rmin)/(R−Rmax)×Sf2/Sf1, where Kd is the Fura2-AM dissociation constant at the two excitation wavelengths (F340/F380); Rmin is the fluorescence ratio in the presence of minimal calcium, obtained by chelating Ca^2+ with 10 mM EGTA; Rmax is the fluorescence ratio in the presence of excess calcium, obtained by treating cells with 1 μM ionomycin; Sf2 is the fluorescence of the Ca^2+-free form; and Sf1 is the fluorescence of the Ca^2+-bound form of Fura2-AM at excitation wavelengths of 380 and 340 nm, respectively. In some experiments cells were placed in a Ca^2+-free medium consisting of the HBSS described above in which CaCl2 was omitted and 100 μM EGTA was added in order to chelate residual Ca^2+ ions. This medium was added to the cells just before recording to avoid leak of the intracellular calcium stores.
All cells were purchased from ATCC (Molsheim Cedex, France). T leukemic cell lines CEM, H9 and Jurkat were cultured in RPMI supplemented with 8% heat-inactivated FCS (v/v) and 2 mM L-glutamine at 37° C. in a 5% CO2 incubator. CEM-IRC cell expressing a low amount of plasma membrane CD95 was described in (Beneteau et al., 2007; Beneteau et al., 2008). […]
T cells were loaded with Fura-PE3-AM (1 μM) at room temperature for 30 min in Hank's Balanced Salt Solution (HBSS). […] Cells were placed in the temperature controlled chamber (37° C.) of an inverted epifluorescence microscope (Olympus IX70) equipped with an ×40 UApo/340-1.15 W water-immersion objective (Olympus), and fluorescence micrograph images were captured at 510 nm and 12-bit resolution by a fast-scan camera (CoolSNAP fx Monochrome, Photometrics). […]

[2] = tested on: MDA-MB-231; test: Boyden chamber migration of triple negative breast cancer cells; format: cell-based; conditions: MDA-MB-231 pre-incubated 1 hour with 10 μM; cl-CD95L 100 ng/mL for 24 h
Procedure: Boyden chambers contained membranes with a pore size of 8 μm (Millipore, Molsheim, France). After hydration of the membranes, breast cancer cells (10^5 cells per chamber) were added to the top chamber in low serum (1%)-containing medium. The bottom chamber was filled with low serum (1%)-containing medium in the presence or absence of cl-CD95L (100 ng/mL). Cells were cultured for 24 h at 37° C. To quantify migration, cells were mechanically removed from the top-side of the membrane using a cotton-tipped swab, and migrating cells from the reverse side were fixed with methanol and stained with Giemsa. For each experiment, five representative pictures were taken for each insert, then cells were lyzed and absorbance at 560 nm correlated to the amount of Giemsa stain was measured.

TAT-CID: cell penetrating peptide linking the 36-amino acid-stretch of CID (CD95 residues 175 to 210) to the HIV-TAT sequence; SEQ ID NO: 6 (RKKRRQRRRKRKEVQKTCRKHRKENQGSHESPTLNPETVAINLSD; TAT-CID)
calcium response to cl-CD95L [1]: abrogated the CD95-mediated Ca^2+ response | calcium response to cl-CD95L ([1]; listed as TAT CID 175-210): greatly reduced the calcium response | cell migration (Boyden chamber assay) [2]: inhibits migration
